Source: patent EP3623369A1, “NOVEL MORPHOLINYL AMINE COMPOUNDS FOR THE TREATMENT OF AUTOIMMUNE DISEASE” (F. Hoffmann-La Roche AG, priority 2018, dated 2020)

Target: T1, hTLR7 (Homo sapiens, UniProt Q9NYK1)
T1 sequence (Q9NYK1 27-1049): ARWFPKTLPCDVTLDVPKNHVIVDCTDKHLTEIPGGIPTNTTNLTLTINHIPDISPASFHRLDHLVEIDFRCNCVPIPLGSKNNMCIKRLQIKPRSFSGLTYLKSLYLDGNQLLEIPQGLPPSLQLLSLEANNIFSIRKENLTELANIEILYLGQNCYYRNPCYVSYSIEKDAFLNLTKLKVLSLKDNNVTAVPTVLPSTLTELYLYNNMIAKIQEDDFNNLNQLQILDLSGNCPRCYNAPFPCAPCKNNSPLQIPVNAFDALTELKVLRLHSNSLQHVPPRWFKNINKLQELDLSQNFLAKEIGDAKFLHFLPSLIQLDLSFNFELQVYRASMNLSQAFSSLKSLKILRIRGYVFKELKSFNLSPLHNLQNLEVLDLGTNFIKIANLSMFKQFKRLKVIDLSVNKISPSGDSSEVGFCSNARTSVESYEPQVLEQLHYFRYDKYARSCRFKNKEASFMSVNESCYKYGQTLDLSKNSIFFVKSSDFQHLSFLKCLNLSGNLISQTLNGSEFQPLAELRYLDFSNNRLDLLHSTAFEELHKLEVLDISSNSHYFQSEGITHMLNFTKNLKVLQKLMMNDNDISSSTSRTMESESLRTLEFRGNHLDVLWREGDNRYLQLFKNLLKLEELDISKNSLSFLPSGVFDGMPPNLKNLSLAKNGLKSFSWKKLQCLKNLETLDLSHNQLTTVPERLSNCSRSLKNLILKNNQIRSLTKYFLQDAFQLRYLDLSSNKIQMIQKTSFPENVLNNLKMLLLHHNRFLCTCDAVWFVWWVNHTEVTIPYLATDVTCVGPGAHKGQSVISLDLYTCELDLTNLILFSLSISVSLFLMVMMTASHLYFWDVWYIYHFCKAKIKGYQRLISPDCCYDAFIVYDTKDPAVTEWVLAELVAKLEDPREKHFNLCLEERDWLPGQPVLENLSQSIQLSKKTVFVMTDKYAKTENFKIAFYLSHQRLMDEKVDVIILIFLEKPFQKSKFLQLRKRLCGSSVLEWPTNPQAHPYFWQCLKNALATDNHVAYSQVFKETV
Experiment: HEK293-Blue-hTLR-7 cells assay (SEAP reporter, R848 stimulation)
Type: cell-based
Conditions: HEK293-Blue-hTLR7 cells, R848, 20 hrs; 0.003 is the lowest tested concentration; read-out: HEK/hTLR7 IC50
In short: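 HEK293-Blue-hTLR7 cells carry an NF-κB/AP-1-driven SEAP reporter and were stimulated with R848 in the presence of serially diluted compound (1% DMSO final) for 20 hrs at 37 °C. Supernatant SEAP was measured with QUANTI-Blue after 2 hrs at 37 °C, reading absorbance at 620∼655 nm.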

IC50 [nM]	SMILES
11	C[C@@H]1CN(c2ccc(C#N)c3ncsc23)C[C@H](CN2Cc3cc(N4CCNCC4)cnc3C2)O1 [Example 25, 7-[(2R,6S)-2-methyl-6-[(3-piperazin-1-yl-5,7-dihydropyrrolo[3,4-b]pyridin-6-yl)methyl]morpholin-4-yl]-1,3-benzothiazole-4-carbonitrile]
68	C[C@@H]1CN(c2ccc(C#N)n3nccc23)C[C@H](CN2Cc3cc(N4CCNCC4)cnc3C2)O1 [Example 18, 4-[(2R,6S)-2-methyl-6-[(3-piperazin-1-yl-5,7-dihydropyrrolo[3,4-b]pyridin-6-yl)methyl]morpholin-4-yl]pyrazolo[1,5-a]pyridine-7-carbonitrile]
23	C[C@@H]1CN(c2ccc(C#N)c3ncccc23)C[C@H](CN2Cc3cnc(N4CCNCC4)cc3C2)O1 [Example 61, 5-[(2R,6S)-2-methyl-6-[(6-piperazin-1-yl-1,3-dihydropyrrolo[3,4-c]pyridin-2-yl)methyl]morpholin-4-yl]quinoline-8-carbonitrile]
9	C[C@@H]1CN(c2ccc(Cl)c3nccnc23)C[C@H](CN2Cc3ccc(N4CCNCC4)cc3C2)O1 [Example 33, (2R,6S)-4-(8-chloroquinoxalin-5-yl)-2-methyl-6-[(5-piperazin-1-ylisoindolin-2-yl)methyl]morpholine]
29	C[C@@H]1CN(c2ccc(Cl)c3ncccc23)C[C@H](CN2Cc3ccc(N4CCNCC4)cc3C2)O1 [Example 31, (2R,6S)-4-(8-chloro-5-quinolyl)-2-methyl-6-[(5-piperazin-1-ylisoindolin-2-yl)methyl]morpholine]

SMILES	IC50 [nM]
C[C@@H]1CN(c2ccc(C#N)c3ncccc23)C[C@H](CN2Cc3ccccc3C2)O1 [Example R3, 5-[(2S,6R)-2-(isoindolin-2-ylmethyl)-6-methyl-morpholin-4-yl]quinoline-8-carbonitrile, reference compound]	186
